Results reported in paper PMC6106897, “Biocatalytic synthesis of acylated derivatives of troxerutin: their bioavailability and antioxidant properties in vitro” (Microbial Cell Factories, 2018).

Legend:
[1] = Transport experiment in Caco-2 monolayers; type: in vitro ADME, human; settings: human, Caco-2
Procedure: (§1) The absorptions of troxerutin and its acylated derivatives was measured as described by Chen et al.. Caco-2 cells were cultured in DMEM supplemented with 10% FBS, 100 μg/mL streptomycin, and 100 U/mL penicillin at 37 °C in an atmosphere of 5% CO2 and the medium was changed every 2 days. Caco-2 cells used in this study were seeded onto 12-well translucent Transwell inserts (0.4 μm pore size, Corning Costar, Corning, NY, USA) at a density of 2.5 × 10^5 cells/mL and grown for 3 weeks. Transepithelial electrical resistance (TEER) and lucifer yellow were measured to detect the integrity of Caco-2 monolayers. TEER values were measured by using a voltammeter (Millicell ERS, Millipore, Bedford, MA, USA) and the amount of lucifer yellow transported to the basolateral side in a 2.5-h period was quantified by using a fluorospectrometer (Fluoroskan Ascent FL, Thermo Labsystems, Helsinki, Finland) at an excitation wavelength of 425 nm and emission wavelength of 530 nm. ALP activity was measured to detect the differentiation degree of Caco-2 monolayers by using an ALP Assay Kit.
(§2) Samples (100 μM, 0.5 mL) were placed on the apical (AP) side along with 1.5 mL of HBSS added to the basolateral (BL) side. […] The volume removed from the recipient side was replaced with fresh HBSS at 30, 60, 90, 120, and 150 min. The concentrations on the BL side were measured by HPLC. The apparent permeability coefficients (Papp, cm/s) were calculated according to the equation: Papp=dQ/dt×V/A×C0, where the dQ/dt is the permeability rate (μM/s) calculated from the slope of the amount of tested compounds transported versus time, V is the volume of the basolateral chamber (mL), A is the surface area of the inset (cm^2), and C0 is the initial concentration (μM) of the samples.

[2] = after oral consumption; cited from earlier work
Caco-2 monolayers = assay: Transport experiment in Caco-2 monolayers; type: in vitro ADME, human; settings: Caco-2 monolayers
Procedure: as §1, §2

[3] = 1-octanol/water partition coefficient (logP); type: physicochemical
Procedure: The 1-octanol/water partition coefficients of troxerutin and its propionyl derivatives were measured as previously described. Each compound was fully mixed with 1-octanol and then vigorously mixed with an equal amount of water. After equilibration for 30 min, the concentrations of compound in each layer were respectively measured by HPLC. The results are shown as common logarithms (logP).

erythrocytes = assay: Erythrocyte hemolysis induced by AAPH; type: cell-based, sheep; settings: 20 μM sample, 200 mM AAPH, 2.5 h, 37 °C
Procedure: The hemolysis study was performed according to the method of Zhang et al. with some modifications. Erythrocytes from healthy sheep were centrifuged at 770×g for 10 min at 4 °C and washed three times with PBS. Equal amounts of erythrocyte suspension (20%, v/v) and sample solution (20 μM) were mixed and the mixture was incubated for 20 min at 37 °C. After adding 200 mM AAPH, incubation was continued for a further 2.5 h at the same temperature. The final reaction system was diluted with 8 mL PBS and then centrifuged at 1200×g for 10 min at 4 °C. The degree of hemolysis in the supernatant was determined by measuring the absorbance at 540 nm. To obtain the complete hemolysate, ultrapure water was added to the mixture. PBS was used as a negative control and Trolox was used as a positive control. These values were measured using a 756S UV/Vis spectrophotometer (Lengguang Technology). The treated supernatant was collected to measure the level of MDA. All experiments were performed independently in triplicate. The hemolysis rate was calculated using the equation: Hemolysis rate%=OD540of sample/OD540of complete hemolysis×100%.

[4] = ABTS radical scavenging ability; settings: sample concentration 20 μM
Procedure: (§3) Scavenging abilities of hydroxyl and ABTS radicals, and ORAC were measured as described previously with some modifications. A 759S UV/Vis spectrophotometer (Lengguang Technology, Shanghai, China) was used to determine the absorbance of HO· at 532 nm and ABTS^·+ at 734 nm. ORAC analysis was conducted using a Fluoroskan Ascent microplate reader (Thermo Electron Corp., Waltham, MA, USA) at excitation and emission wavelengths of 485 and 530 nm, respectively. Trolox or vitamin C (VC) was used as a positive control, the sample concentration was 20 μM, and all experiments were repeated independently in triplicate.

[5] = Hydroxyl radical scavenging ability; settings: sample concentration 20 μM
Procedure: as §3

[6] = system: erythrocyte lysate membrane lipid peroxidation; assay: Lipid peroxidation (MDA release) after complete hemolysis; type: cell-based, sheep; settings: erythrocytes completely hemolysed in cold ultrapure water, lysate treated with AAPH
[7] = ORAC assay (fluorescence quenching induced by AAPH); settings: 20 μM
Procedure: as §3

| Structure (SMILES) | Papp A→B at 150 min, 100 μM [1] [×10⁻⁶ cm/s] | Papp B→A at 150 min, 100 μM [1] [×10⁻⁶ cm/s] | Bioavailability [2] [%] | UR (uptake ratio = Papp AP–BL/Papp BL–AP) (Caco-2 monolayers) | Papp at 150 min, 100 μM [1] [×10⁻⁶ cm/s] | logP at 30 min [3] | Inhibition effects on AAPH-induced erythrocyte hemolysis, rank order (erythrocytes) | Inhibition of AAPH-induced erythrocyte hemolysis (erythrocytes) | Free radical scavenging ability ABTS·+ [4] | Free radical scavenging ability HO· [5] | Inhibition ability for membrane lipid peroxidation (MDA release), rank order [6] | Capacity to inhibit fluorescence quenching (ORAC), rank order [7] |
| --- | --- | --- | --- | --- | --- | --- | --- | --- | --- | --- | --- | --- |
| CC(C)NCC(O)COc1cccc2ccccc12 (centres unmarked) [Propranolol] | 48.9 ± 3.3 | 44 ± 2.98 | > 90 |  |  |  |  |  |  |  |  |  |
| C[C@@H]1O[C@@H](OC[C@H]2O[C@@H](Oc3c(-c4ccc(O)c(O)c4)oc4cc(O)cc(O)c4c3=O)[C@H](O)[C@@H](O)[C@@H]2O)[C@H](O)[C@H](O)[C@H]1O [Rutin, rutin] | 0.06 ± 0.01 | 0.06 ± 0.02 |  | 1.00 ± 0.05 | 0.06 |  |  |  |  |  |  |  |
| CCC(=O)OCCOc1cc(O)c2c(=O)c(OC3OC(COC4OC(C)C(O)C(O)C4O)C(O)C(O)C3O)c(-c3ccc(OCCOC(=O)CC)c(OCCO)c3)oc2c1 (centres unmarked) [TDE] | 1.54 ± 0.17 | 1.53 ± 0.21 |  |  |  | 1.51 ± 0.05 | troxerutin < TME ≈ TDE | effectively inhibited | 81.5 ± 2.1 c % | 89.7 ± 1.8 c % | troxerutin ≈ TME > TDE | troxerutin ≈ TME > TDE |
| CCC(=O)OCCOc1ccc(-c2oc3cc(OCCO)cc(O)c3c(=O)c2OC2OC(COC3OC(C)C(O)C(O)C3O)C(O)C(O)C2O)cc1OCCO (centres unmarked) [TME] | 0.99 ± 0.12 | 1.05 ± 0.12 |  |  |  | < 0 | troxerutin < TME ≈ TDE | effectively inhibited | 90.4 ± 3.0 b % | 95.2 ± 3.5 b % | troxerutin ≈ TME > TDE | troxerutin ≈ TME > TDE |
| C[C@@H]1O[C@@H](OC[C@H]2O[C@@H](Oc3c(-c4ccc(OCCO)c(OCCO)c4)oc4cc(OCCO)cc(O)c4c3=O)[C@H](O)[C@@H](O)[C@@H]2O)[C@H](O)[C@H](O)[C@H]1O [Troxerutin, troxerutin] | 0.34 ± 0.05 | 0.35 ± 0.03 |  |  |  |  | troxerutin < TME ≈ TDE | effectively inhibited | 96.8 ± 4.1 ab % | 97.1 ± 2.7 ab % | troxerutin ≈ TME > TDE | troxerutin ≈ TME > TDE |
| O=C1O[C@H]([C@@H](O)CO)C(O)=C1O [VC, vitamin C, reference compound] |  |  |  |  |  |  |  |  | 100 ± 0.02 a % | 99.3 ± 0.05 a % |  |  |
